Here are results for 22 molecules from patent publication US20090137499A1, “BENZYLPHENYL GLUCOPYRANOSIDE DERIVATIVE” (priority 2006, published 2009).

For the assay, the target named is T1, human SGLT2 (Homo sapiens, UniProt P31639).
T1 construct: expressed in transfected cells
T1 sequence (P31639 1-672): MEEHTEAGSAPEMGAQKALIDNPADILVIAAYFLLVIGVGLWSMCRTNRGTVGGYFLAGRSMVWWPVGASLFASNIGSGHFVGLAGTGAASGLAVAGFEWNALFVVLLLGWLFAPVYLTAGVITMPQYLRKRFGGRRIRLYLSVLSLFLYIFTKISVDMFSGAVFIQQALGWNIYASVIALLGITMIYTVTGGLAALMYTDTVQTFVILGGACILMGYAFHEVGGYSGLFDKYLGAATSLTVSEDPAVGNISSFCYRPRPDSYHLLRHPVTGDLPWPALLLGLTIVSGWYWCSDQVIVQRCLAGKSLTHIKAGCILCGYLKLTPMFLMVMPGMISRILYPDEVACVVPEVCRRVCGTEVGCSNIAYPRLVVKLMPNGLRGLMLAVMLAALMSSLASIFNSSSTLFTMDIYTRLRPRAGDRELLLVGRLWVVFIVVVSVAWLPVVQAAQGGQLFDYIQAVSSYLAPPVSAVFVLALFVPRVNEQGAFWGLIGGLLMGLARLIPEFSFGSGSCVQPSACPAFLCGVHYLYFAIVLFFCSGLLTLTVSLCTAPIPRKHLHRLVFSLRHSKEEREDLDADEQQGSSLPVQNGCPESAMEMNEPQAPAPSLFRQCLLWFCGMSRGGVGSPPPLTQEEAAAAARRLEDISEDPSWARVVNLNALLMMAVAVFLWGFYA
Kind of assay: Determination of SGLT2 inhibiting activity using human SGLT2 expressing cell ([14C]-α-methyl-D-glucopyranoside uptake). In kind it is cell-based. Particulars: HEK-SGLT2 cells, 1 mM [14C]-α-methyl-D-glucopyranoside, 37° C., 30 min. As for the experimental part: Determination of SGLT2 Inhibiting Activity Using Human SGLT2 Expressing Cell
1) Preparation of Vector Expressing Human SGLT2 cDNA in Animal Cell
Amplification was performed by PCR using human SGLT2 cDNA clone (Origene: Clone Number, TC303267; GenBank accession number, NM 003041) as a template. The sense oligonucleotide primer for PCR was 5′-[…]-3′ (Primer 3: SEQ ID NO: 3 in the sequence listing),
and the antisense oligonucleotide primer was 5′-[…]-3′ (Primer 4: SEQ ID NO: 4 in the sequence listing). The PCR product was subjected to agarose electrophoresis, then a target DNA fragment was recovered from a single band corresponding to 2037 bases, digested with restriction enzymes HindIII and XhoI, and introduced into the HindIII/XhoI site of vector pCMV-Script (Stratagene) to obtain SGLT2 expressing plasmid pCMV-SGLT2. A HindIII/XhoI fragment was excised from pCMV-SGLT2 and introduced into the BamHI/XhoI site of pENTR1A (Gateway, Invitrogen) to prepare pENTR-SGLT2. Retrovirus vector pLPCX (Clontech) into which Gateway Vector Conversion System Cassette A (Invitrogen) was introduced was used as the destination plasmid to prepare SGLT2 expressing retrovirus vector pLPCX-SGLT2.
2) Establishment of Human SGLT2 Expressing Cell
The retrovirus pLPCX-SGLT2 obtained in 1) was transfected into integrin αvβ3 expressing HEK-293 cells, the cells were treated with antibiotic G418 (brand name, Geneticin: Invitrogen) and puromycin (Clontech) to obtain HEK-SGLT2 cells stably expressing the target vector having resistance. The stably expressing cells were cultured and maintained in DMEM medium containing […] G418, […] puromycin, 3 mM KGT-1075, and 10% FBS.
3) Determination of SGLT2 Inhibiting Activity
HEK-SGLT2 cells were suspended at a density of 10^6 cells/mL in DMEM medium containing 250 mg/mil G418, 1 mg/ml puromycin, and 10% FBS, and 100 μL was seeded in each well of a type 1 collagen-coated 96-well culture plate (Corning). On the following day, the medium was replaced with a sugar uptake buffer (10 mM HEPES [pH 7.5], 5 mM Tris-HCl [pH 7.5], 140 mM NaCl, 2 mM KCl, 1 mM CaCl2, 1 mM MgCl2), and the cells were cultured with 1 mM [^14C]-α-methyl-D-glucopyranoside (0.1 mCi) and a test compound at 37° C. for 30 min, and then washed 3 times with a washing buffer (10 mM HEPES (pH 7.5), 5 mM Tris-HCl (pH 7.5), 140 mM choline chloride, 2 mM KCl, 1 mM CaCl2, 1 mM MgCl2). 100 μL of liquid scintillation cocktail (brand name, Supermix: Perkin-Elmer) was added to each well of the 96-well plate and stirred for 10 min, and then radioactivity was determined with micro β (Perkin-Elmer), a type of liquid scintillation counter. The value obtained by deducting the radioactivity in the presence of an excess amount of an SGLT2 inhibiting compound as the background from each measured value was taken as the sugar uptake activity, the inhibition rate (%) was calculated from the control sugar uptake activity obtained without using a test compound and the sugar uptake activity obtained using a test compound having a predetermined concentration, and the concentrations of the test compound at which the sugar uptake activity was inhibited by 50% were assessed.
As a reminder, the IC50 is the concentration needed to halve the response being measured. Low values mean inhibition by little substance, high ones a need for much substance. `COc1ccc(Cc2ccc(CO)cc2O[C@@H]2O[C@H]([C@@H](C)O)[C@@H](O)[C@H](O)[C@H]2O)cc1` [Example 9, 2-(4-Methoxybenzyl)-5-hydroxymethylphenyl 7-deoxy-D-glycero-β-D-gluco-heptopyranoside] showed an IC50 of 9.4 nM.

On to `COc1ccc(Cc2cc(CO)cnc2O[C@@H]2O[C@H]([C@@H](C)O)[C@@H](O)[C@H](O)[C@H]2O)cc1` [Example 38, 3-(4-Methoxybenzyl)-5-hydroxymethylpyridin-2-yl 7-deoxy-D-glycero-β-D-gluco-heptopyranoside], for which inhibition was half-maximal at 17 nM (IC50).

As for `CCc1ccc(Cc2ccc(N)cc2O[C@@H]2O[C@H](C(C)O)[C@@](C)(O)[C@H](O)[C@H]2O)cc1` (stereo partly drawn) [Example 41, 5-Amino-2-(4-ethylbenzyl)phenyl 4-C-methyl-7-deoxy-glycero-β-D-gluco-heptapyranoside], half-maximal inhibition (IC50) required 14 nM.

Consider `COc1ccc(Cc2c(Cl)cccc2O[C@@H]2O[C@H]([C@@H](C)O)[C@@H](O)[C@H](O)[C@H]2O)cc1` [Example 42, 3-Chloro-2-(4-methoxybenzyl)phenyl 7-deoxy-D-glycero-β-D-gluco-heptopyranoside], for which the midpoint of inhibition, the IC50, lay at 18 nM.

In turn, `COc1ccc(Cc2c(Cl)cc(C)cc2O[C@@H]2O[C@H]([C@@H](C)O)[C@@H](O)[C@H](O)[C@H]2O)cc1` [Example 43, 3-Chloro-5-methyl-2-(4-methoxybenzyl)phenyl 7-deoxy-D-glycero-β-D-gluco-heptopyranoside] came in with a 50% inhibitory concentration (IC50) of 61 nM.

In the case of `COc1ccc(Cc2c(Cl)cc(CO)cc2O[C@@H]2O[C@H]([C@@H](C)O)[C@@H](O)[C@H](O)[C@H]2O)cc1` [Example 44, 3-Chloro-5-hydroxymethyl-2-(4-methoxybenzyl)phenyl 7-deoxy-D-glycero-β-D-gluco-heptopyranoside], 10 nM corresponded to half-maximal inhibition (IC50).

In turn, `CCOc1ccc(Cc2c(Cl)cc(CO)cc2O[C@@H]2O[C@H]([C@@H](C)O)[C@@H](O)[C@H](O)[C@H]2O)cc1` [Example 45, 3-Chloro-2-(4-ethoxybenzyl)-5-hydroxymethyl-phenyl 7-deoxy-D-glycero-β-D-gluco-heptopyranoside] showed an IC50 of 45 nM.

`CCOc1ccc(Cc2c(F)cc(CO)cc2O[C@@H]2O[C@H]([C@@H](C)O)[C@@H](O)[C@H](O)[C@H]2O)cc1` [Example 46, 2-(4-Ethoxybenzyl)-3-fluoro-5-hydroxymethyl-phenyl 7-deoxy-D-glycero-β-D-gluco-heptopyranoside] returned an IC50 of 16 nM.

On to `CCc1ccc(Cc2c(F)cc(CO)cc2O[C@@H]2O[C@H]([C@@H](C)O)[C@@H](O)[C@H](O)[C@H]2O)cc1` [Example 47, 2-(4-Ethylbenzyl)-3-fluoro-5-hydroxymethyl-phenyl 7-deoxy-D-glycero-β-D-gluco-heptopyranoside], for which half-maximal inhibition (IC50) required 38 nM. Against the preceding molecule, the IC50 is about 2.4-fold higher.

With `COc1ccc(Cc2c(Cl)cc(CO)cc2O[C@@H]2O[C@H]([C@H](C)O)[C@@H](O)[C@H](O)[C@H]2O)cc1` [Example 57, 3-Chloro-5-hydroxymethyl-2-(4-methoxybenzyl)phenyl 7-deoxy-L-glycero-β-D-gluco-heptopyranoside], the IC50 came to 11 nM. This IC50 lies about 3.5-fold lower than the previous one.

For the molecule `C[C@@H](O)[C@H]1O[C@@H](Oc2cc(CO)ccc2Cc2ccc(OC3CC3)cc2)[C@H](O)[C@@H](O)[C@@H]1O` [Example 60, 2-(4-Cyclopropyloxybenzyl)-5-hydroxymethylphenyl 7-deoxy-D-glycero-β-D-gluco-heptopyranoside], inhibition was half-maximal at 12 nM (IC50).

Consider `C[C@@H](O)[C@H]1O[C@@H](Oc2cc(CO)ccc2Cc2ccc(C3CC3)cc2)[C@H](O)[C@@H](O)[C@@H]1O` [Example 62, 2-(4-Cyclopropylbenzyl)-5-hydroxymethylphenyl 7-deoxy-D-glycero-β-D-gluco-heptopyranoside], for which the IC50 was found to be 32 nM. Compared with the last molecule, the IC50 is about 2.7-fold higher.

`C[C@@H](O)[C@H]1O[C@@H](Oc2cc(CO)cc(F)c2Cc2ccc(OC3CC3)cc2)[C@H](O)[C@@H](O)[C@@H]1O` [Example 63, 2-(4-Cyclopropoxybenzyl)-3-fluoro-5-hydroxymethyl-phenyl 7-deoxy-D-glycero-β-D-gluco-heptopyranoside] displayed an IC50 of 34 nM. This IC50 and that of the molecule before are within 1.5-fold of each other.

Molecule `CSc1ccc(Cc2ccc(CO)cc2O[C@@H]2O[C@H]([C@@H](C)O)[C@@H](O)[C@H](O)[C@H]2O)cc1` [Example 66, 5-Hydroxymethyl-2-(4-methylsulfanylbenzyl)phenyl 7-deoxy-D-glycero-β-D-gluco-heptopyranoside] gave an IC50 of 23 nM. The IC50 values of the last two molecules are within 1.5-fold of each other.

Molecule `CCc1ccc(Cc2ccc(CCO)cc2O[C@@H]2O[C@H]([C@@H](C)O)[C@@H](O)[C@H](O)[C@H]2O)cc1` [Example 67, 2-(4-Ethylbenzyl)-5-(2-hydroxyethyl)phenyl 7-deoxy-D-glycero-β-D-gluco-heptopyranoside] gave an IC50 of 30 nM.

For `C[C@@H](O)[C@H]1O[C@@H](Oc2cc(CO)ccc2Cc2ccc(CCCO)cc2)[C@H](O)[C@@H](O)[C@@H]1O` [Example 68, 5-Hydroxymethyl-2-[4-(3-hydroxypropyl)benzyl]phenyl 7-deoxy-D-glycero-β-D-gluco-heptopyranoside], the IC50 came to 12 nM.

Turning to `COc1ccc(Cc2c(C)cc(C)cc2O[C@@H]2O[C@H]([C@@H](C)O)[C@@H](O)[C@H](O)[C@H]2O)cc1F` [Example 69, 2-(3-Fluoro-4-methoxybenzyl)-3,5-dimethylphenyl 7-deoxy-D-glycero-β-D-gluco-heptopyranoside], the IC50 was 40 nM.

For the molecule `Cc1cc(C)c(Cc2ccc(CCO)cc2)c(O[C@@H]2O[C@H]([C@@H](C)O)[C@@H](O)[C@H](O)[C@H]2O)c1` [Example 70, 2-[4-(2-Hydroxyethyl)benzyl]-3,5-dimethylphenyl 7-deoxy-D-glycero-β-D-gluco-heptopyranoside], the IC50 amounted to 40 nM.

For the molecule `CCCOc1ccc(Cc2c(F)cc(CO)cc2O[C@@H]2O[C@H]([C@@H](C)O)[C@@H](O)[C@H](O)[C@H]2O)cc1` [Example 74, 3-Fluoro-5-hydroxymethyl-2-(4-propoxybenzyl)phenyl 7-deoxy-D-glycero-β-D-gluco-heptopyranoside], the IC50 stood at 47 nM.

For the molecule `CC(C)Oc1ccc(Cc2c(F)cc(CO)cc2O[C@@H]2O[C@H]([C@@H](C)O)[C@@H](O)[C@H](O)[C@H]2O)cc1` [Example 75, 3-Fluoro-5-hydroxymethyl-2-(4-isopropoxybenzyl)phenyl 7-deoxy-D-glycero-β-D-gluco-heptopyranoside], the IC50 was determined as 38 nM.

`COc1ccc(Cc2c(C)cc(C)cc2O[C@@H]2O[C@H]([C@@H](C)O)[C@@H](O)[C@H](O)[C@H]2O)cc1` [Example 77, 3,5-Dimethyl-2-(4-methoxybenzyl)phenyl 7-deoxy-D-glycero-β-D-gluco-heptopyranoside] displayed an IC50 of 25 nM.

In turn, `COc1ccc(Cc2ccc(CO)cc2O[C@@H]2O[C@H]([C@@H](C)O)[C@@H](O)[C@H](O)[C@H]2O)cc1F` [Example 78, 2-(3-Fluoro-4-methoxybenzyl)-5-hydroxymethylphenyl 7-deoxy-D-glycero-β-D-gluco-heptopyranoside] showed an IC50 of 11 nM. Compared with the last molecule, the IC50 is about 2.3-fold lower.
